Results on two molecules are retold here after article PMC7979807, “A 37-amino acid loop in the Yarrowia lipolytica hexokinase impacts its activity and affinity and modulates gene expression” (Scientific Reports, 2021).

Holding throughout (experiment): Hexokinase Colorimetric Assay Kit, whole-cell extract, […] hexose
Assay type in all cases: biochemical

For assay [1], the target named is T1, ScHxk2 (Saccharomyces cerevisiae, UniProt P04807).
T1 construct: gene HXK2; full-length, untagged; pTEF overexpression in Y. lipolytica Po1d hxk1 glk1; whole-cell extract
T1 sequence (P04807 2-486): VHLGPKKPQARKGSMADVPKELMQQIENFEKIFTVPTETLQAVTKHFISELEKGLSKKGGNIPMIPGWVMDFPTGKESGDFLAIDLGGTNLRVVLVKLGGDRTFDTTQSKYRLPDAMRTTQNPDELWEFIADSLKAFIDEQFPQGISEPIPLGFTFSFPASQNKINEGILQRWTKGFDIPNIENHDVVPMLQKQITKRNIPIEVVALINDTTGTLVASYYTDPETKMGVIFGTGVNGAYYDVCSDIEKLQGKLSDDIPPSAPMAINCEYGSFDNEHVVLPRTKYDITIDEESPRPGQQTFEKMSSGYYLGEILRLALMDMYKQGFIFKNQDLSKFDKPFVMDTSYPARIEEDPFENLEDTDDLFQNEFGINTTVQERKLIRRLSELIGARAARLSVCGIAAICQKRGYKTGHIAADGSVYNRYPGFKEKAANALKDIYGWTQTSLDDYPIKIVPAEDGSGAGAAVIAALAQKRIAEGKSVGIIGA
The conditions noted are these: relative to YlHxk1, absolute Km not given; extract 30 µg/mL protein in PBS pH 7.4; host hxk1 glk1.

In assay [2] the target is T2, YlHxk1 (Yarrowia lipolytica, UniProt F2Z672, E500G).
T2 construct: gene YALI0_B22308g; full-length, 534 residues, untagged; pTEF overexpression in Y. lipolytica Po1d hxk1 glk1; whole-cell extract; gene from W29 genomic DNA
T2 sequence (F2Z672 entry or part of it E500G): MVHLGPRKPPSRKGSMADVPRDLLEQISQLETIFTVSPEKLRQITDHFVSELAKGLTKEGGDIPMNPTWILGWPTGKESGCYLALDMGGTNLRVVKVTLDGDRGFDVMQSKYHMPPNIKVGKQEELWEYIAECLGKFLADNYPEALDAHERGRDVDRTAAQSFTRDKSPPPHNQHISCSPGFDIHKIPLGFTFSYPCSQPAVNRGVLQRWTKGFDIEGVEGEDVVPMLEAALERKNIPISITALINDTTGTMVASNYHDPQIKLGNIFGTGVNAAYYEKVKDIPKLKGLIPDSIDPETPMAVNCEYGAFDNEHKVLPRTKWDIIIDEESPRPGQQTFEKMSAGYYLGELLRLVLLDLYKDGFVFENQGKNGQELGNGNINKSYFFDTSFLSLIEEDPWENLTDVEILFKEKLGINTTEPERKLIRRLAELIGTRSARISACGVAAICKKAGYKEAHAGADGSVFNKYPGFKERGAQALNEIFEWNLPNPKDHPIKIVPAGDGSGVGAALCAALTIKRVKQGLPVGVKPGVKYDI
The note with it: relative to YlHxk1, absolute Km not given; extract 30 µg/mL protein in PBS pH 7.4; host hxk1 glk1.

In assay [3] the target is T3, YlHxk1 (Yarrowia lipolytica, UniProt F2Z672, DEL155-182).
T3 construct: gene YALI0_B22308g; full-length, 534 residues, untagged; pTEF overexpression in Y. lipolytica Po1d hxk1 glk1; whole-cell extract; gene from W29 genomic DNA
T3 sequence (F2Z672 entry or part of it DEL155-182): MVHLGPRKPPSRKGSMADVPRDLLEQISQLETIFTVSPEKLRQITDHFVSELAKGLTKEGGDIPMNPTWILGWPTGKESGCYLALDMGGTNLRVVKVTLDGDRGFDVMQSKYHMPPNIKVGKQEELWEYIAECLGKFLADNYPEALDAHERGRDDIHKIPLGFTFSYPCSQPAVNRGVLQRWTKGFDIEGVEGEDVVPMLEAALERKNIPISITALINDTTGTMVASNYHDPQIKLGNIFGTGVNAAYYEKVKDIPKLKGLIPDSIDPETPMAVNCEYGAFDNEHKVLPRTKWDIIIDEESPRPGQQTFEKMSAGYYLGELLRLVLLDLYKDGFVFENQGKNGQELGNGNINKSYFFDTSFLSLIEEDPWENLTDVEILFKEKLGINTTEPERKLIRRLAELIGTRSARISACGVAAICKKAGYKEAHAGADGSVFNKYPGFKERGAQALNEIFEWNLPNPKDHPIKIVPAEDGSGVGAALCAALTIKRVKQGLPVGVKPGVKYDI
The conditions noted are these: relative to YlHxk1, absolute Km not given; extract 30 µg/mL protein in PBS pH 7.4; host hxk1 glk1.

The target in assay [4] is T4, YlHxk1 (Yarrowia lipolytica, UniProt F2Z672, DEL7-15).
T4 construct: gene YALI0_B22308g; full-length, 534 residues, untagged; pTEF overexpression in Y. lipolytica Po1d hxk1 glk1; whole-cell extract; gene from W29 genomic DNA
T4 sequence (F2Z672 entry or part of it DEL7-15): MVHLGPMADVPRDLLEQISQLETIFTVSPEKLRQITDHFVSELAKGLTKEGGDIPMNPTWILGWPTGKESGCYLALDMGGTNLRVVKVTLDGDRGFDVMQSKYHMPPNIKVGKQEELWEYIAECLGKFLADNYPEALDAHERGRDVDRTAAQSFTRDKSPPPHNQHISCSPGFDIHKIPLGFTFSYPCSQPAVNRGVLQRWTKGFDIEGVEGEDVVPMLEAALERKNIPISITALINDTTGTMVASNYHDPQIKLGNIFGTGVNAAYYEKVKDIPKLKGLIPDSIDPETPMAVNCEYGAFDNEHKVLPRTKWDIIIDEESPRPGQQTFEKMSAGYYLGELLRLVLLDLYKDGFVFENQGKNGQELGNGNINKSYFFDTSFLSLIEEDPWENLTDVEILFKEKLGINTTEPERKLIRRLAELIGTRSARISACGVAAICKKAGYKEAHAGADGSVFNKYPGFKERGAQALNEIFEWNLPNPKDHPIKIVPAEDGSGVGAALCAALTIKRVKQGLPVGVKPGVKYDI
The conditions noted are these: relative to YlHxk1, absolute Km not given; extract 30 µg/mL protein in PBS pH 7.4; host hxk1 glk1.

Assay [5] deals with T5, YlHxk1 (Yarrowia lipolytica, UniProt F2Z672).
T5 construct: gene YALI0_B22308g; full-length, 534 residues, untagged; pTEF overexpression in Y. lipolytica Po1d hxk1 glk1; whole-cell extract; gene from W29 genomic DNA
T5 sequence (F2Z672 1-534): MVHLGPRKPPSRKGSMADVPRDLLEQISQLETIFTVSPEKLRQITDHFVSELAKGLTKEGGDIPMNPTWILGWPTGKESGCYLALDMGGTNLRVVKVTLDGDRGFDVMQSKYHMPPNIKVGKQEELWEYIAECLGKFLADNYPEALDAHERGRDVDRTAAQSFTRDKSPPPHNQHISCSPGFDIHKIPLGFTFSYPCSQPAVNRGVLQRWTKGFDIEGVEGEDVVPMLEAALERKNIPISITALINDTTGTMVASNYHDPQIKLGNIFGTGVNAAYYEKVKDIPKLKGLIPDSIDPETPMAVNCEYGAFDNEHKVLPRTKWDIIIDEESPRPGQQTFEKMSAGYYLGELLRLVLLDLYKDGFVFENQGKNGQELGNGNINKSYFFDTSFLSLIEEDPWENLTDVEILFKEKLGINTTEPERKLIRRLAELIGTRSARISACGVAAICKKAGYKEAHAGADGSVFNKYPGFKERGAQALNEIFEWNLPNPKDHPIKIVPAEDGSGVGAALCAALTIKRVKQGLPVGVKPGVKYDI
The note with it: reference enzyme of the fold scale, no absolute Km of this study printed; otherwise same.

Assay [6] deals with T3, YlHxk1. The conditions noted are these: relative to YlHxk1, absolute Km not given; extract 30 µg/mL protein in PBS pH 7.4; host hxk1 glk1. The source holds these as a separate data set.
In assay [7] the target is T2, YlHxk1. The note with it: relative to YlHxk1, absolute Km not given; extract 30 µg/mL protein in PBS pH 7.4; host hxk1 glk1. This is another data set of the same source.
Assay [8] addresses T4, YlHxk1. The conditions noted are these: relative to YlHxk1, absolute Km not given; extract 30 µg/mL protein in PBS pH 7.4; host hxk1 glk1. This is another data set of the same source.
Assay [9] deals with T1, ScHxk2. The conditions noted are these: relative to YlHxk1, absolute Km not given; extract 30 µg/mL protein in PBS pH 7.4; host hxk1 glk1. This is another data set of the same source.

For the molecule `OCC1(O)OC[C@@H](O)[C@@H](O)[C@@H]1O` (stereo partly shown) [fructose], the “relative hexokinase activity with 20 mM fructose” value on ScHxk2 [1] stood at 8.00 ± 0.76 fold vs YlHxk1. For the same molecule, the “relative hexokinase activity at 20 mM fructose” value at YlHxk1 [2] was 0.53 ± 0.15 fold vs YlHxk1. For the same molecule, the “hexokinase activity with 20 mM fructose, relative to YlHxk1” value at YlHxk1 [3] was found to be 2.80 ± 0.28 fold vs YlHxk1. The “relative hexokinase activity on 20 mM fructose” value at YlHxk1 [4] is 3.98 ± 0.67 fold vs YlHxk1. Moreover, the “20 mM glucose” value at YlHxk1 [5] amounted to 1.00 fold vs YlHxk1.
In the case of `OC[C@H]1OC(O)[C@H](O)[C@@H](O)[C@@H]1O` (stereo partly shown) [glucose], the “20 mM glucose” value at YlHxk1 [6] is 2.05 ± 0.32 fold vs YlHxk1; at YlHxk1 [8], 0.18 ± 0.03 fold vs YlHxk1; at YlHxk1 [5], 1.00 fold vs YlHxk1; at ScHxk2 [9], 1.22 ± 0.16 fold vs YlHxk1. The “relative hexokinase activity at 20 mM glucose” value on YlHxk1 [7] worked out at 2.50 ± 0.24 fold vs YlHxk1.
